The target in this data set is CYP3A4 (Homo sapiens, UniProt P08684). Description: inhibition of testosterone metabolism in Caco-2/TC7 cells (HPLC). Format: cell-based.
Setting [1] is: read-out: % inhibition at 10 μM.

Data on five molecules can be found in publication PMC4987671, “Inhibition of cytochrome P450 3A by acetoxylated analogues of resveratrol in in vitro and in silico models” (Scientific Reports, 2016).

Broadly, the inhibition is the change of the read-out against control, counted positive when it falls.

The structures appear in SMILES notation. Read-outs that look alike come from different tables or passages of the source.

Sequence of CYP3A4 (P08684 2-503): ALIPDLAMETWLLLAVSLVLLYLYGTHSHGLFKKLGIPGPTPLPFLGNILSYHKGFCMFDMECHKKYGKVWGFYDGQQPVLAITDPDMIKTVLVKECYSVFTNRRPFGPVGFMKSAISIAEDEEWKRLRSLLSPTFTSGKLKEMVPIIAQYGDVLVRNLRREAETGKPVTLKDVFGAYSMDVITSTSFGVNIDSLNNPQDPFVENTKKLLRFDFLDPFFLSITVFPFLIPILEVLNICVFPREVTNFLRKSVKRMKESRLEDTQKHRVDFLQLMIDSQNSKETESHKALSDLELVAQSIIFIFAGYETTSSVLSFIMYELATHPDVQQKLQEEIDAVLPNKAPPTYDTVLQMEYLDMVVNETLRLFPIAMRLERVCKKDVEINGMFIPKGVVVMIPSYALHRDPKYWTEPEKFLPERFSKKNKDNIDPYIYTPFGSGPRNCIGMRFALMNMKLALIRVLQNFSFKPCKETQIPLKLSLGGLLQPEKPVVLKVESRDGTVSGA

As for `CC(=O)Oc1ccc(/C=C/c2cc(O)cc(OC(C)=O)c2)cc1` [DAR, 3,4′-acetoxy-5-hydroxy-stilbene], the inhibition at 10 µM under setting [1] is 45%.

Consider `CC(=O)Oc1ccc(/C=C/c2cc(OC(C)=O)cc(OC(C)=O)c2)cc1` [TAR, 3,4′,5-acetoxystilbene], for which, under setting [1], the inhibition at 10 µM stood at 10%.

Consider `CC(=O)Oc1ccc(/C=C/c2cc(O)cc(O)c2)cc1` [MAR, 4′-acetoxy-3,5-hydroxy-stilbene], for which the inhibition at 10 µM under setting [1] was 24%.

Molecule `CC(=O)N1CCN(c2ccc(OC[C@H]3COC(Cn4ccnc4)(c4ccc(Cl)cc4Cl)O3)cc2)CC1` (some centres unmarked) [ketoconazole, reference compound] came in with an inhibition at 10 µM of roughly 80%.

On to `Oc1ccc(/C=C/c2cc(O)cc(O)c2)cc1` [resveratrol, trans-3,4′,5-trihydroxystilbene], for which the inhibition at 10 µM under setting [1] is greater than 80%.
